Data: PubChem BioAssay AID1745864

Target: Excitatory amino acid transporter 1 (Homo sapiens) (UniProt P43003)
Test: EAAT1 electrogenic uptake substrate activity – HEK293 JumpIn overexpressing cells, membrane potential dye, dose response (AID 1745864)
Details: HEK293 JumpIn SLC1A3 OE, FLIPR membrane potential

Chain of Excitatory amino acid transporter 1 (Homo sapiens) (P43003 whole entry, looked up): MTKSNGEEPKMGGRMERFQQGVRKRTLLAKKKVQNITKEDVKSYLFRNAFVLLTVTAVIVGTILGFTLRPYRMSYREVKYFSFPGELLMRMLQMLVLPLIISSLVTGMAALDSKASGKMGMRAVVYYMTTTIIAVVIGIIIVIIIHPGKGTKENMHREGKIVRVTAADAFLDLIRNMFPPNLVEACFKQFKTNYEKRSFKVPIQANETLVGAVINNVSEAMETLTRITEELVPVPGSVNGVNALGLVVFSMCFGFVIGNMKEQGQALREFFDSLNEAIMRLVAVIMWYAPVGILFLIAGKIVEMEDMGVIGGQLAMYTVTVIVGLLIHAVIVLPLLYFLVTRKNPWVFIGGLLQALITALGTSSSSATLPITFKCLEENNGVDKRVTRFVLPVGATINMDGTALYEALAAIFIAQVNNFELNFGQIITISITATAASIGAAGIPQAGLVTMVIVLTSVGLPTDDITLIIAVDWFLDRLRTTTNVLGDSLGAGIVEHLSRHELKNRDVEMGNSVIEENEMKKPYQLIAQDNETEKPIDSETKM

EC50: 376 µM
Compound: N[C@@H](CS)C(=O)O
